Experimental data reported in the NIST ThermoML archive (doi:10.1021/acs.jced.5b00330).
Numbers after ± are expanded uncertainties.

How the values were obtained:
[1] = Crystal
[2] = Solid-liquid equilibrium temperature; details: Crystal, High pressure microscope

Normal melting temperature ([1]; DTA) [°C]	Normal melting temperature ([1]; High pressure microscope) [°C]	Solid-liquid equilibrium temperature ([2]; 100 kPa) [K]	Solid-liquid equilibrium temperature ([2]; 20000 kPa) [K]	Solid-liquid equilibrium temperature ([2]; 40000 kPa) [K]	Solid-liquid equilibrium temperature ([2]; 60000 kPa) [K]	Solid-liquid equilibrium temperature ([2]; 80000 kPa) [K]	Normal melting temperature ([1]; High Pressure microscope) [°C]	Compound
49.7 ± 1.3	49.1 ± 1.4	322.2 ± 0.4	327.3 ± 0.5	332.4 ± 0.5	337.6 ± 0.5	342.7 ± 0.5		CCCCCCCCCCCCCCCCO [1-hexadecanol]
58.2 ± 1.3		330.9 ± 0.4	335.8 ± 0.5	340.9 ± 0.5	345.9 ± 0.5	350.6 ± 0.5	57.8 ± 1.4	CCCCCCCCCCCCCCCCCCO [1-octadecanol]
37.8 ± 1.3	37.5 ± 1.4	310.6 ± 0.4	314.2 ± 0.5	319 ± 0.5	323.8 ± 0.5	327.8 ± 0.5		CCCCCCCCCCCCCCO [1-tetradecanol]
24.7 ± 1.3		296.9 ± 0.4	300.5 ± 0.5	304.6 ± 0.5	308.4 ± 0.5	311.7 ± 0.5	23.8 ± 1.4	CCCCCCCCCCCCO [dodecan-1-ol]
